Assay results taken from patent US20120270929A1, “MODULATION OF TTC39 EXPRESSION TO INCREASE HDL” (ISIS Pharmaceuticals, Inc., priority 2009, published 2012).
pIC50: −log10 of the molar value. Oligonucleotides are written 5' to 3', each unit as a sugar letter and its base; * is a phosphorothioate linkage, no mark a phosphodiester; rarer units and linkages stand in square brackets, end groups in braces. Plain capitals give the bases only. e = 2'-O-(2-methoxyethyl) (MOE); [5mC] = 5-methylcytosine; d = 2'-deoxy (DNA)

Experiments:
murine TTC39B mRNA = assay: Antisense inhibition of murine TTC39B in mouse primary hepatocytes, single dose; assay type: cell-based; settings: 100 nM, cytofectin, ~24 h, vs untreated control
Description: Antisense oligonucleotides targeted to a TTC39B nucleic acid were tested for their effects on TTC39B mRNA in vitro. Cultured mouse primary hepatocytes at a density of 10,000 cells per well were transfected using cytofectin reagent with 100 nM antisense oligonucleotide. After a treatment period of approximately 24 hours, RNA was isolated from the cells and TTC39B mRNA levels were measured by quantitative real-time PCR. TTC39B mRNA levels were adjusted according to total RNA content, as measured by RIBOGREEN®. Results are presented as percent inhibition of TTC39B, relative to untreated control cells.
The chimeric antisense oligonucleotides in Tables 1 and 2 were designed as 5-10-5 MOE gapmers. The gapmers are 20 nucleotides in length, wherein the central gap segment is comprised of 10 2′-deoxynucleotides and is flanked on both sides (in the 5′ and 3′ directions) by wings comprising 5 nucleotides each. Each nucleotide in the 5′ wing segment and each nucleotide in the 3′ wing segment has a 2′-MOE modification. The internucleoside linkages throughout each gapmer are phosphorothioate (P═S) linkages. All cytosine residues throughout each gapmer are 5-methylcytosines. “Target start site” indicates the 5′-most nucleotide to which the gapmer is targeted. “Target stop site” indicates the 3′-most nucleotide to which the gapmer is targeted. Each gapmer listed in Table 1 is targeted to SEQ ID NO: 6 (GENBANK Accession No. NM_027238.2) and each gapmer listed in Table 2 is targeted to SEQ ID NO: 10 (the complement of GENBANK Accession No. NT—039260.7 truncated at nucleotides 22491001 to 22601000), SEQ ID NO: 11 (GENBANK Accession No. BY244623.1), SEQ ID NO: 12 (GENBANK Accession No. BY260936), SEQ ID NO: 13 (GENBANK Accession No. BM935568.1) or SEQ ID NO: 14 (GENBANK Accession No. BY728780.1).

murine TTC39C mRNA = assay: Dose-dependent antisense inhibition of murine TTC39C in mouse primary hepatocytes; assay type: cell-based; settings: electroporation, ~16 h
Description: Thirty antisense oligonucleotides were selected from the study described in Example 8 and further tested at various doses in mouse primary hepatocytes. Cells were plated at a density of 30,000 cells per well and transfected using electroporation with 500 nM, 1,000 nM, 2,000 nM, 4,000 nM, and 8,000 nM concentrations of antisense oligonucleotide, as specified in Table 30. After a treatment period of approximately 16 hours, RNA was isolated from the cells and TTC39C mRNA levels were measured by quantitative real-time PCR. Murine primer probe set RTS3266 was used to measure mRNA levels. TTC39C mRNA levels were adjusted according to total RNA content, as measured by RIBOGREEN®. Results are presented as percent inhibition of TTC39C, relative to untreated control cells.

[1] = gapmers targeted to SEQ ID NO: 6
[2] = gapmers targeted to SEQ ID NO: 10-14

Substance: AAAATATCTCTGAAGTTTAA (antisense eA*eA*eA*eA*eT*dA*dT*d[5mC]*dT*d[5mC]*dT*dG*dA*dA*dG*eT*eT*eT*eA*eA) [ISIS 447136]
- % inhibition of murine TTC39B mRNA (murine TTC39B mRNA; [1]): 24%

Substance: AAAGAGGAGTCCTTCCTTAA (antisense eA*eA*eA*eG*eA*dG*dG*dA*dG*dT*d[5mC]*d[5mC]*dT*dT*d[5mC]*e[5mC]*eT*eT*eA*eA) [ISIS 447160]
- % inhibition of murine TTC39B mRNA (murine TTC39B mRNA; [2]): 63%

Substance: ACAAAGTGAAAGCCGCTGGT (antisense eA*e[5mC]*eA*eA*eA*dG*dT*dG*dA*dA*dA*dG*d[5mC]*d[5mC]*dG*e[5mC]*eT*eG*eG*eT) [ISIS 447103]
- % inhibition of murine TTC39B mRNA (murine TTC39B mRNA; [1]): 64%

Substance: ACAGTATCTTGAACATGACA (antisense eA*e[5mC]*eA*eG*eT*dA*dT*d[5mC]*dT*dT*dG*dA*dA*d[5mC]*dA*eT*eG*eA*e[5mC]*eA) [ISIS 447147]
- % inhibition of murine TTC39B mRNA (murine TTC39B mRNA; [1]): 46%

Substance: ACTCAGTCATACTTTTGGCA (antisense eA*e[5mC]*eT*e[5mC]*eA*dG*dT*d[5mC]*dA*dT*dA*d[5mC]*dT*dT*dT*eT*eG*eG*e[5mC]*eA) [ISIS 447168]
- % inhibition of murine TTC39B mRNA (murine TTC39B mRNA; [2]): 35%

Substance: AGATACAAGTCCCTTCTGCC (antisense eA*eG*eA*eT*eA*d[5mC]*dA*dA*dG*dT*d[5mC]*d[5mC]*d[5mC]*dT*dT*e[5mC]*eT*eG*e[5mC]*e[5mC]) [ISIS 447137]
- % inhibition of murine TTC39B mRNA (murine TTC39B mRNA; [1]): 50%

Substance: AGCATCAAATTAAAGGCCCC (antisense eA*eG*e[5mC]*eA*eT*d[5mC]*dA*dA*dA*dT*dT*dA*dA*dA*dG*eG*e[5mC]*e[5mC]*e[5mC]*e[5mC]) [ISIS 447113]
- % inhibition of murine TTC39B mRNA (murine TTC39B mRNA; [1]): 59%

Substance: AGCCTTGTTCACTGGGAAGA (antisense eA*eG*e[5mC]*e[5mC]*eT*dT*dG*dT*dT*d[5mC]*dA*d[5mC]*dT*dG*dG*eG*eA*eA*eG*eA) [ISIS 447162]
- % inhibition of murine TTC39B mRNA (murine TTC39B mRNA; [2]): 59%

Substance: AGGACCTTGATGGCCTTGTC (antisense eA*eG*eG*eA*e[5mC]*d[5mC]*dT*dT*dG*dA*dT*dG*dG*d[5mC]*d[5mC]*eT*eT*eG*eT*e[5mC]) [ISIS 447130]
- % inhibition of murine TTC39B mRNA (murine TTC39B mRNA; [1]): 44%

Substance: AGTATGAGGGAGCCATTTGG (antisense eA*eG*eT*eA*eT*dG*dA*dG*dG*dG*dA*dG*d[5mC]*d[5mC]*dA*eT*eT*eT*eG*eG) [ISIS 447117]
- % inhibition of murine TTC39B mRNA (murine TTC39B mRNA; [1]): 47%

Substance: ATCATATTTTCATCCTGAAA (antisense eA*eT*e[5mC]*eA*eT*dA*dT*dT*dT*dT*d[5mC]*dA*dT*d[5mC]*d[5mC]*eT*eG*eA*eA*eA) [ISIS 447170]
- % inhibition of murine TTC39B mRNA (murine TTC39B mRNA; [2]): 35%

Substance: ATCCACATTAATTCCCAGTA (antisense eA*eT*e[5mC]*e[5mC]*eA*d[5mC]*dA*dT*dT*dA*dA*dT*dT*d[5mC]*d[5mC]*e[5mC]*eA*eG*eT*eA) [ISIS 447120]
- % inhibition of murine TTC39B mRNA (murine TTC39B mRNA; [1]): 65%

Substance: CAGTAAAGTCTTGATTCTGC (antisense e[5mC]*eA*eG*eT*eA*dA*dA*dG*dT*d[5mC]*dT*dT*dG*dA*dT*eT*e[5mC]*eT*eG*e[5mC]) [ISIS 447126]
- % inhibition of murine TTC39B mRNA (murine TTC39B mRNA; [1]): 58%

Substance: CATCATTTCCAGGGCTGGCA (antisense e[5mC]*eA*eT*e[5mC]*eA*dT*dT*dT*d[5mC]*d[5mC]*dA*dG*dG*dG*d[5mC]*eT*eG*eG*e[5mC]*eA) [ISIS 447125]
- % inhibition of murine TTC39B mRNA (murine TTC39B mRNA; [1]): 54%

Substance: CCAGACAGACACTCAGACCA (antisense e[5mC]*e[5mC]*eA*eG*eA*d[5mC]*dA*dG*dA*d[5mC]*dA*d[5mC]*dT*d[5mC]*dA*eG*eA*e[5mC]*e[5mC]*eA) [ISIS 447149]
- % inhibition of murine TTC39B mRNA (murine TTC39B mRNA; [1]): 48%

Substance: CCCCGTTCCAAGCTTGACTC (antisense e[5mC]*e[5mC]*e[5mC]*e[5mC]*eG*dT*dT*d[5mC]*d[5mC]*dA*dA*dG*d[5mC]*dT*dT*eG*eA*e[5mC]*eT*e[5mC]) [ISIS 447112]
- % inhibition of murine TTC39B mRNA (murine TTC39B mRNA; [1]): 62%

Substance: CCGCACACCCACAGGGAACT (antisense e[5mC]*e[5mC]*eG*e[5mC]*eA*d[5mC]*dA*d[5mC]*d[5mC]*d[5mC]*dA*d[5mC]*dA*dG*dG*eG*eA*eA*e[5mC]*eT) [ISIS 447099]
- % inhibition of murine TTC39B mRNA (murine TTC39B mRNA; [1]): 56%

Substance: CCTGATAAATCACAAATGCT (antisense e[5mC]*e[5mC]*eT*eG*eA*dT*dA*dA*dA*dT*d[5mC]*dA*d[5mC]*dA*dA*eA*eT*eG*e[5mC]*eT) [ISIS 447150]
- % inhibition of murine TTC39B mRNA (murine TTC39B mRNA; [1]): 46%

Substance: CCTTACCAAATTAAAGGCCC (antisense e[5mC]*e[5mC]*eT*eT*eA*d[5mC]*d[5mC]*dA*dA*dA*dT*dT*dA*dA*dA*eG*eG*e[5mC]*e[5mC]*e[5mC]) [ISIS 447171]
- % inhibition of murine TTC39B mRNA (murine TTC39B mRNA; [2]): 23%

Substance: CGGAGATCAGTTTCTTCACT (antisense e[5mC]*eG*eG*eA*eG*dA*dT*d[5mC]*dA*dG*dT*dT*dT*d[5mC]*dT*eT*e[5mC]*eA*e[5mC]*eT) [ISIS 447165]
- % inhibition of murine TTC39B mRNA (murine TTC39B mRNA; [2]): 50%

Substance: CGTGTCATTTATTAAATAAC (antisense e[5mC]*eG*eT*eG*eT*d[5mC]*dA*dT*dT*dT*dA*dT*dT*dA*dA*eA*eT*eA*eA*e[5mC]) [ISIS 447154]
- % inhibition of murine TTC39B mRNA (murine TTC39B mRNA; [1]): 22%

Substance: CTGATGAACTTGATTTAGCC (antisense e[5mC]*eT*eG*eA*eT*dG*dA*dA*d[5mC]*dT*dT*dG*dA*dT*dT*eT*eA*eG*e[5mC]*e[5mC]) [ISIS 447166]
- % inhibition of murine TTC39B mRNA (murine TTC39B mRNA; [2]): 0%

Substance: CTTTATTGTACCTGCCAGTC (antisense e[5mC]*eT*eT*eT*eA*dT*dT*dG*dT*dA*d[5mC]*d[5mC]*dT*dG*d[5mC]*e[5mC]*eA*eG*eT*e[5mC]) [ISIS 447134]
- % inhibition of murine TTC39B mRNA (murine TTC39B mRNA; [1]): 53%

Substance: GAATTATTTATTCTCACACC (antisense eG*eA*eA*eT*eT*dA*dT*dT*dT*dA*dT*dT*d[5mC]*dT*d[5mC]*eA*e[5mC]*eA*e[5mC]*e[5mC]) [ISIS 447167]
- % inhibition of murine TTC39B mRNA (murine TTC39B mRNA; [2]): 56%

Substance: GACAGCCTGCAACACCACAA (antisense eG*eA*e[5mC]*eA*eG*d[5mC]*d[5mC]*dT*dG*d[5mC]*dA*dA*d[5mC]*dA*d[5mC]*e[5mC]*eA*e[5mC]*eA*eA) [ISIS 447105]
- % inhibition of murine TTC39B mRNA (murine TTC39B mRNA; [1]): 52%

Substance: GACTTTGAGATGGCACACAA (antisense eG*eA*e[5mC]*eT*eT*dT*dG*dA*dG*dA*dT*dG*dG*d[5mC]*dA*e[5mC]*eA*e[5mC]*eA*eA) [ISIS 447152]
- % inhibition of murine TTC39B mRNA (murine TTC39B mRNA; [1]): 60%

Substance: GACTTTTAATTCAAAGTCCT (antisense eG*eA*e[5mC]*eT*eT*dT*dT*dA*dA*dT*dT*d[5mC]*dA*dA*dA*eG*eT*e[5mC]*e[5mC]*eT) [ISIS 447153]
- % inhibition of murine TTC39B mRNA (murine TTC39B mRNA; [1]): 58%

Substance: GAGTACATTCAAATACAGGA (antisense eG*eA*eG*eT*eA*d[5mC]*dA*dT*dT*d[5mC]*dA*dA*dA*dT*dA*e[5mC]*eA*eG*eG*eA) [ISIS 447139]
- % inhibition of murine TTC39B mRNA (murine TTC39B mRNA; [1]): 58%

Substance: ISIS 474654: 5-10-5 MOE gapmer antisense oligonucleotide targeting murine TTC39C (antisense eT*e[5mC]*eA*eG*e[5mC]*dT*dA*d[5mC]*dA*dG*dA*dA*d[5mC]*dG*d[5mC]*eA*eG*eG*eG*eT)
- percent inhibition of TTC39C mRNA (murine TTC39C mRNA; 500.0 nM): 11%
- percent inhibition of TTC39C mRNA (murine TTC39C mRNA; 1000.0 nM): 14%
- percent inhibition of TTC39C mRNA (murine TTC39C mRNA; 2000.0 nM): 38%
- percent inhibition of TTC39C mRNA (murine TTC39C mRNA; 4000.0 nM): 60%
- percent inhibition of TTC39C mRNA (murine TTC39C mRNA; 8000.0 nM): 74%
- pIC50 (murine TTC39C mRNA; mouse primary hepatocytes): 5.51
